Values after ≈ are worked out from the molar mass of the structure shown.
How the values were obtained:
Assay type in all cases: cell-based
[1] = system: H. influenzae ATCC 49247; assay: MIC determination, broth microdilution (CLSI); conditions: for MIC: Haemophilus influenzae, ATCC49247, strain 13, read-out: strain 13 MIC
[2] = system: E. cloacae 34654; assay: MIC determination, broth microdilution (CLSI); conditions: for MIC: Enterobacter cloacae, 34654, strain 3
[3] = system: A. baumannii ATCC15308; assay: MIC determination, broth microdilution (CLSI); conditions: for MIC: Acinetobacter baumannii, ATCC15308, strain 9
[4] = system: S. aureus 133; assay: MIC determination, broth microdilution (CLSI); conditions: for MIC: Staphylococcus aureus, 133, strain 11, read-out: strain 11 MIC
[5] = system: E. coli J62; assay: MIC determination, broth microdilution (CLSI); conditions: for MIC: Escherichia coli, J62, strain 17, read-out: strain 17 MIC
[6] = system: E. coli ATCC25922; assay: MIC determination, broth microdilution (CLSI); conditions: for MIC: Escherichia coli, ATCC25922, strain 1
[7] = system: M. morganii 126/3048; assay: MIC determination, broth microdilution (CLSI); conditions: for MIC: Morganella morganii, 126/3048, strain 5
[8] = system: E. coli J62-TEM-3; assay: MIC determination, broth microdilution (CLSI); conditions: for MIC: Escherichia coli, J62TEM3, read-out: strain 18 MIC, strain 18
[9] = system: P. aeruginosa 2297-con (AmpC derepressed); assay: MIC determination, broth microdilution (CLSI); conditions: for MIC: Pseudomonas aeruginosa, read-out: strain 8 MIC, strain 8
[10] = system: P. aeruginosa 2297 (AmpC wt); assay: MIC determination, broth microdilution (CLSI); conditions: for MIC: Pseudomonas aeruginosa, strain 7
[11] = system: strain 20; assay: MIC determination, broth microdilution (CLSI)
[12] = system: strain 21; assay: MIC determination, broth microdilution (CLSI)
[13] = system: M. catarrhalis ICB489; assay: MIC determination, broth microdilution (CLSI); conditions: for MIC: Moraxella catarrhalis, ICB489, strain 12
[14] = system: K. pneumoniae 60; assay: MIC determination, broth microdilution (CLSI); conditions: for MIC: Klebsiella pneumoniae, 60, strain 2
[15] = system: C. freundii K21/3034; assay: MIC determination, broth microdilution (CLSI); conditions: for MIC: Citrobacter freundii, K21/3034, strain 4
[16] = system: strain 19; assay: MIC determination, broth microdilution (CLSI)
[17] = system: P. aeruginosa PAO1; assay: MIC determination, broth microdilution (CLSI); conditions: for MIC: Pseudomonas aeruginosa, PAO1, strain 6
[18] = system: S. maltophilia ICB7569; assay: MIC determination, broth microdilution (CLSI); conditions: for MIC: Stenotrophomonas maltophilia, ICB7569, strain 10
[19] = system: B. fragilis 6688; assay: MIC determination, broth microdilution (CLSI); conditions: for MIC: Bacteroides fragilis, 6688, strain 15, read-out: strain 15 MIC
[20] = system: C. perfringens DSM756; assay: microbe, parasite or virus in culture; conditions: for MIC: Clostridium perfringens, DSM756, read-out: strain 16 MIC, strain 16
[21] = system: S. pneumoniae 113; assay: MIC determination, broth microdilution (CLSI); conditions: Streptococcus pneumoniae, 113, strain 14; read-out: strain 14 MIC

SMILES | strain 13 MIC [1] [µg/mL] | strain 3 MIC [2] | strain 9 MIC [3] [µg/mL] | strain 17 MIC [5] [µg/mL] | strain 1 MIC [6] [µg/mL] | strain 5 MIC [7] | strain 8 MIC [9] [µg/mL] | strain 7 MIC [10] [µg/mL] | strain 20 MIC [11] | strain 21 MIC [12] [µg/mL] | strain 12 MIC [13] | strain 2 MIC [14] | strain 4 MIC [15] [µg/mL] | strain 19 MIC [16] [µg/mL] | strain 6 MIC [17] [µg/mL] | strain 10 MIC [18] [µg/mL] | strain 15 MIC [19] [µg/mL] | strain 16 MIC [20] [µg/mL] | MIC [4] [µg/mL] | MIC [8] [µg/mL] | further results
CC1(C)[C@H](NC(=O)/C(=N\OC(COc2ccc(C(=N)N)cc2)C(=O)O)c2csc(N)n2)C(=O)N1OS(=O)(=O)O (mixture of isomers) [Example 27B, (2S and 2R)-2-({[(1Z)-1-(2-Amino-1,3-thiazol-4-yl)-2-{[(3S)-2,2-dimethyl-4-oxo-1-(sulfo-oxy)azetidin-3-yl]amino}-2-oxoethylidene]amino}oxy)-3-(4-carbamimidoylphenoxy)-propanoic acid] | 0.5 | 4 µg/mL | 16 | 2 | 2 | 1 µg/mL | 16 | 32 | 2 µg/mL | 2 | 0.25 µg/mL | 1 µg/mL | 1 | 1 | 16 | 8 | 32 | 32 |  |  | strain 11 MIC [4]: 0.125 µg/mL; strain 18 MIC [8]: 8 µg/mL
CC1(C)[C@H](NC(=O)/C(=N\OC(COc2ccc(C(=N)N)cc2)C(=O)O)c2csc(N)n2)C(=O)N1OS(=O)(=O)O (mixture of isomers) [Example 27A, (2S and 2R)-2-({[(1Z)-1-(2-Amino-1,3-thiazol-4-yl)-2-{[(3S)-2,2-dimethyl-4-oxo-1-(sulfo-oxy)azetidin-3-yl]amino}-2-oxoethylidene]amino}oxy)-3-(4-carbamimidoylphenoxy)-propanoic acid] |  | 0.25 µg/mL | 4 | 0.25 | 0.25 | 0.125 µg/mL | 4 | 4 | 0.25 µg/mL | 0.25 | ≦0.063 mg/L | 0.125 µg/mL | 0.25 | 0.25 | 4 |  | 8 | 4 | ≤ 0.063 | 8 | MIC [1]: 0.5 µg/mL; MIC [18]: 4 µg/mL
CC1(C)[C@H](NC(=O)/C(=N\OC(COc2ccc(C(=N)N)c(O)c2)C(=O)O)c2csc(N)n2)C(=O)N1OS(=O)(=O)O (mixture of isomers) [Example 34A, (2S and 2R)-2-({[(1Z)-1-(2-Amino-1,3-thiazol-4-yl)-2-{[(3S)-2,2-dimethyl-4-oxo-1-(sulfo-oxy)azetidin-3-yl]amino}-2-oxoethylidene]amino}oxy)-3-(4-carbamimidoyl-3-hydroxyphenoxy)propanoic acid] | 0.5 | 0.5 µg/mL |  | 1 | 1 | 0.25 µg/mL |  | 8 | 0.5 µg/mL | 0.5 | ≦0.063 mg/L | 1 µg/mL | 1 | 0.5 | 8 | 8 |  | 2 |  | 32 | MIC [3]: 32 µg/mL; strain 11 MIC [4]: ≦0.063 mg/L; MIC [9]: 16 µg/mL; MIC [19]: 16 µg/mL
CC1(C)[C@H](NC(=O)/C(=N\OCCSc2ccc(C(=N)N)cc2)c2csc(N)n2)C(=O)N1OS(=O)(=O)O [Example 7, (2Z)-2-(2-Amino-1,3-thiazol-4-yl)-2-({2-[(4-carbamimidoylphenyl)sulfanyl]ethoxy}imino)-N-[(3S)-2,2-dimethyl-4-oxo-1-(sulfooxy)azetidin-3-yl]ethanamide] |  |  |  |  |  |  |  |  |  |  |  |  |  |  |  |  |  |  | ≤ 0.063 | 8 (≈ 14.3 µM) | MIC [1]: ≤ 0.063 µg/mL; MIC [2]: 1 µg/mL (≈ 1.79 µM); MIC [3]: 2 µg/mL (≈ 3.59 µM); MIC [5]: 1 µg/mL (≈ 1.79 µM); MIC [6]: 0.5 µg/mL (≈ 0.897 µM); MIC [7]: 0.5 µg/mL (≈ 0.897 µM); MIC [9]: 8 µg/mL (≈ 14.3 µM); MIC [10]: 16 µg/mL (≈ 28.7 µM); MIC [11]: 1 µg/mL (≈ 1.79 µM); MIC [12]: 1 µg/mL (≈ 1.79 µM); MIC [13]: 0.25 µg/mL (≈ 0.448 µM); MIC [21]: 2 µg/mL (≈ 3.59 µM); MIC [14]: 1 µg/mL (≈ 1.79 µM); MIC [15]: 0.5 µg/mL (≈ 0.897 µM); MIC [16]: 0.5 µg/mL (≈ 0.897 µM); MIC [17]: 8 µg/mL (≈ 14.3 µM); MIC [18]: 4 µg/mL (≈ 7.17 µM); MIC [19]: 1 µg/mL (≈ 1.79 µM); MIC [20]: 2 µg/mL (≈ 3.59 µM)
CC1(C)[C@H](NC(=O)/C(=N\OC(COc2ccc(C(=N)N)nc2)C(=O)O)c2csc(N)n2)C(=O)N1OS(=O)(=O)O (mixture of isomers) [Example 36A, (2S and 2R)-2-({[(1Z)-1-(2-Amino-1,3-thiazol-4-yl)-2-{[(3S)-2,2-dimethyl-4-oxo-1-(sulfo-oxy)azetidin-3-yl]amino}-2-oxoethylidene]amino}oxy)-3-[(6-carbamimidoylpyridin-3-yl)oxy]propanoic acid] | 0.5 | ≦0.063 mg/L | 4 | 0.125 | 0.125 | ≦0.063 mg/L | 4 |  | ≦0.063 mg/L | 0.125 | ≦0.063 mg/L | ≦0.063 mg/L | 0.125 | 0.125 | 4 | 2 | 8 | 2 | ≤ 0.063 |  | strain 18 MIC [8]: 8 µg/mL; MIC [10]: 4 µg/mL
N=C(N)c1ccc(OCCO/N=C(\C(=O)NC2C(=O)N(OS(=O)(=O)O)C23CCCC3)c2csc(N)n2)cc1 (stereo not shown) [Example 16, (2Z)-2-(2-Amino-1,3-thiazol-4-yl)-2-{[2-(4-carbamimidoylphenoxy)ethoxy]imino}-N-[2-oxo-1-(sulfooxy)-1-azaspiro[3.4]oct-3-yl]ethanamide] |  |  |  |  |  |  |  |  |  |  |  |  |  |  |  |  |  |  | ≤ 0.063 | 4 (≈ 7.05 µM) | MIC [1]: ≤ 0.063 µg/mL; MIC [2]: 1 µg/mL (≈ 1.76 µM); MIC [3]: 4 µg/mL (≈ 7.05 µM); MIC [5]: 2 µg/mL (≈ 3.52 µM); MIC [6]: 1 µg/mL (≈ 1.76 µM); MIC [7]: 0.5 µg/mL (≈ 0.881 µM); MIC [9]: 32 µg/mL (≈ 56.4 µM); MIC [10]: 32 µg/mL (≈ 56.4 µM); MIC [11]: 1 µg/mL (≈ 1.76 µM); MIC [12]: 1 µg/mL (≈ 1.76 µM); MIC [13]: 1 µg/mL (≈ 1.76 µM); MIC [14]: 1 µg/mL (≈ 1.76 µM); MIC [15]: 2 µg/mL (≈ 3.52 µM); MIC [16]: 1 µg/mL (≈ 1.76 µM); MIC [17]: 32 µg/mL (≈ 56.4 µM); MIC [18]: 8 µg/mL (≈ 14.1 µM); MIC [19]: 8 µg/mL (≈ 14.1 µM); MIC [20]: 4 µg/mL (≈ 7.05 µM)
